Data from patent US10351566B2, “Therapeutic compounds for pain and synthesis thereof” (priority 2015, dated 2019).
Entries after “also recorded” stand apart in the source; their conditions may differ.

Experiments:
[1] = format: in vivo, mice; conditions: Brain, SC, Mean
[2] = system: Taxol-induced neuropathic pain; experiment: Taxol-induced neuropathic pain in mice, oral route; format: in vivo
Procedure: Study outline in brief: Animals were dosed daily with Taxol for a period of 8 consecutive days (Day 0 to Day 7). On study day 8, prior to drug dosing, the decrease in withdrawal force (tactile allodynia) was verified by applying the von Frey test. After assigning the animals to their treatment groups, the animals were treated daily for a period of 5 days with either vehicle or Formula 1 at different doses. Gabapentin at a dose of 150 mg/kg was dosed only on days of testing (day 8 and day 14).
The activity of Formula 1 following oral administration was assessed using the Taxol model (see Study Outline in section 7.1). […] Gabapentin dosed at 150 mg/kg was active for a period of 4 h post-dosing.

[3] = format: in vivo; conditions: naïve rats, dosing for 7 days
From the text: At 4 days, vehicle-treated animals gained approximately 1% body weight, going from 25.24±0.74 g to 25.50±0.64 g. Formula 1 treated animals went from 25.28±1.04 g to 25.82±1.25 g.

[4] = system: CCI-induced neuropathic pain; experiment: Chronic constriction injury (CCI) model in mice, SC route; format: in vivo; conditions: for Dose of maximum activity / Duration of activity at maximum effect / Level of activity (% of maximum effect-baseline) / Peak of activity (T): CCl model, mice
Procedure: Study outline in brief: The sciatic nerve of mice was exposed under anesthesia, and 3 loose ligations were placed around the nerve. Animals were allowed to recover for 3 days. Tactile allodynia (von Frey testing) and thermal (hot at 50±1° C. and cold at 2±1° C.) hyperalgesia were then assessed. Animals that experienced tactile allodynia were assigned to their treatment groups (vehicle, gabapentin and Formula 1 at different doses). Animals were subsequently treated daily for a period of 5 days with either vehicle or Formula 1 at different doses. Gabapentin at a dose of 150 mg/kg was dosed only on days of testing (day 3 and day 7).

hERG = hERG (Homo sapiens, UniProt Q12809); experiment: hERG in vitro safety pharmacology
Procedure: The IC50 for hERG was greater than 10 μM. A generally accepted safety margin against hERG and other important cardiac targets is ≥30 (a safety margin is calculated as: IC50/Cmax, free or EC50/Cmax, free).

CYP2C8 = target: T1, CYP2C8 (Homo sapiens, UniProt P10632); experiment: Reversible CYP450 inhibition, cocktail format; format: biochemical; conditions: 2C8, reversible inhibition, preliminary
T1 sequence (P10632 1-490): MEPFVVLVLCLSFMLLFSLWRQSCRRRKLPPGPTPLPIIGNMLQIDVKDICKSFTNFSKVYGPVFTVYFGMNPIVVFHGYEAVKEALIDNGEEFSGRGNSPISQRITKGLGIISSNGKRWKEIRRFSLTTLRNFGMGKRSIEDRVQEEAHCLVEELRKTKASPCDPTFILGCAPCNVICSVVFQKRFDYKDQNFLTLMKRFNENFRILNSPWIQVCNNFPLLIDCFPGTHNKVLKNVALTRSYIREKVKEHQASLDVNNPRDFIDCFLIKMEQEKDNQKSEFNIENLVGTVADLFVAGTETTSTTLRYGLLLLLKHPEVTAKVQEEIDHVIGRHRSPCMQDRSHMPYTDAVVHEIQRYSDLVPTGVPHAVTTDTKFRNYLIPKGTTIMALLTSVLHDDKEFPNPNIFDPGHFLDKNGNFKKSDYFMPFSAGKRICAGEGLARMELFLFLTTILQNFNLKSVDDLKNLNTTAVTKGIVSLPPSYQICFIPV
Procedure: (§1) Preliminary in vitro studies on reversible inhibition of major CYP450 enzymes were conducted in a cocktail format for this compound. The IC50 values were 4 μM for CYP2C9, 5 μM for CYP2C19, and greater than 10 μM for CYP3A4, 2C8, 2D6, and 1A2. If total plasma concentrations in humans are less than 0.4 μM, then in vivo drug interaction studies in clinical trials may not be required for this compound.

CYP2C19 = CYP2C19 (Homo sapiens, UniProt P33261); experiment: Reversible CYP450 inhibition, cocktail format; format: biochemical; conditions: preliminary
Procedure: as §1

CYP3A4 = CYP3A4 (Homo sapiens, UniProt P08684); experiment: Reversible CYP450 inhibition, cocktail format; format: biochemical; conditions: preliminary
Procedure: as §1

CYP1A2 = target: T2, CYP1A2 (Homo sapiens, UniProt P05177); experiment: Reversible CYP450 inhibition, cocktail format; format: biochemical; conditions: 1A2, reversible inhibition, preliminary
T2 sequence (P05177 1-516): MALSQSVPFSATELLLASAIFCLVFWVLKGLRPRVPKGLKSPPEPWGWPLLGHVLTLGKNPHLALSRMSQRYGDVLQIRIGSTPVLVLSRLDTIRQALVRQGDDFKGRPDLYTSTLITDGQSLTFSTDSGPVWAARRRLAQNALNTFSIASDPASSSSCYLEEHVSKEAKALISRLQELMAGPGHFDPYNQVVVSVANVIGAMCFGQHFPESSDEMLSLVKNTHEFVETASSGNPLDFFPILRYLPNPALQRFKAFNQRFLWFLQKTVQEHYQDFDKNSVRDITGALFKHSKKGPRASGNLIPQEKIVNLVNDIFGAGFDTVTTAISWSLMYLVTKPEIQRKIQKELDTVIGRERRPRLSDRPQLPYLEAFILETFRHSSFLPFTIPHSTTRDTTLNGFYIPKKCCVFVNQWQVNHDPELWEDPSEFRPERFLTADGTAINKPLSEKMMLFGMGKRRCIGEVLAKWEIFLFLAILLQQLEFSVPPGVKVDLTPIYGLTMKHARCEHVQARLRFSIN
Procedure: as §1

CYP2C9 = CYP2C9 (Homo sapiens, UniProt P11712); experiment: Reversible CYP450 inhibition, cocktail format; format: biochemical; conditions: preliminary
Procedure: as §1

CYP2D6 = CYP2D6 (Homo sapiens, UniProt P10635); experiment: Reversible CYP450 inhibition, cocktail format; format: biochemical; conditions: 2D6, reversible inhibition, preliminary
Procedure: as §1

Sequence of CYP2D6 (P10635 whole entry): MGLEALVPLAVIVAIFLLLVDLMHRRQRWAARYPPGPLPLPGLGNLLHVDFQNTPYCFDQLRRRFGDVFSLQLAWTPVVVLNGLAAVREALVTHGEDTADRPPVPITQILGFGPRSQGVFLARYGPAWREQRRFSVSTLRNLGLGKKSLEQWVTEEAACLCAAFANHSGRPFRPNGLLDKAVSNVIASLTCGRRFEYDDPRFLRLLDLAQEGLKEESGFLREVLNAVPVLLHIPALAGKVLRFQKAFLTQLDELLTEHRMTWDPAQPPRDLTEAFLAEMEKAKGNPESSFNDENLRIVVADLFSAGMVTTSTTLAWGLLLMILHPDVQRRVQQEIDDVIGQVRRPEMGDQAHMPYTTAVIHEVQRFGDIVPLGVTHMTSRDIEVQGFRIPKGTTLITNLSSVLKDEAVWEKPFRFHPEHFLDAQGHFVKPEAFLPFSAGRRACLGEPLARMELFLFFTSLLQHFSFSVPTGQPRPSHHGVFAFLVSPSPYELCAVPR
Sequence of hERG (Q12809 whole entry): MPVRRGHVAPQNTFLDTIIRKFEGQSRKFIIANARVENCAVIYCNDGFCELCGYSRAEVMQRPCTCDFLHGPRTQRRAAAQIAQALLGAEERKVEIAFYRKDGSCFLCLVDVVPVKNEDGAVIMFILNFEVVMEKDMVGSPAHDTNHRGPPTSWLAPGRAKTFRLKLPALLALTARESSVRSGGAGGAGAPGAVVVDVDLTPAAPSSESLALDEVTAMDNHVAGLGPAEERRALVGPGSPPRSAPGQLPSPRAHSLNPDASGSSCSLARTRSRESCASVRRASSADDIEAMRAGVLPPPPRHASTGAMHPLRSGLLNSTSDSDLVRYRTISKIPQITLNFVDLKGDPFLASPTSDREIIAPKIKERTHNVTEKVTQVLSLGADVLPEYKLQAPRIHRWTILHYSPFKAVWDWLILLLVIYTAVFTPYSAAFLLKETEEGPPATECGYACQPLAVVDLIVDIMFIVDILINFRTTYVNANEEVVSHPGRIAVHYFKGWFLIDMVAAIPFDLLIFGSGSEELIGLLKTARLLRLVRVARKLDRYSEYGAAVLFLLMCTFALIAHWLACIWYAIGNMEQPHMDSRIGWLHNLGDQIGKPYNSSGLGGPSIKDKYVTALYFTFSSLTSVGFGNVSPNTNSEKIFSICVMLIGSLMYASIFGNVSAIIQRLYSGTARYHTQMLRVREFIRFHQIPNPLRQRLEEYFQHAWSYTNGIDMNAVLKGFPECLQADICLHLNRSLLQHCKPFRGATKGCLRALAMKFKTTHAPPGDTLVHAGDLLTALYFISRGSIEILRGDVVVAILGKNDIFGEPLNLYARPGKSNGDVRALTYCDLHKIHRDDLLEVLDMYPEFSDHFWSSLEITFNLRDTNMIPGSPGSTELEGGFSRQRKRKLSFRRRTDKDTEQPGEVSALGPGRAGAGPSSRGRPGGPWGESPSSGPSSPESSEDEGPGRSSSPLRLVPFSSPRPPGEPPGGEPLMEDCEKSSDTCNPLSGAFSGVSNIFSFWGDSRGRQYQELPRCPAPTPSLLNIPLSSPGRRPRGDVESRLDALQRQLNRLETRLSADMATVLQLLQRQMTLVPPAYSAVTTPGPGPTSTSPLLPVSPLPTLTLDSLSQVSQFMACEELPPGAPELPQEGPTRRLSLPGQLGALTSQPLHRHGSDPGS
Sequence of CYP3A4 (P08684 whole entry): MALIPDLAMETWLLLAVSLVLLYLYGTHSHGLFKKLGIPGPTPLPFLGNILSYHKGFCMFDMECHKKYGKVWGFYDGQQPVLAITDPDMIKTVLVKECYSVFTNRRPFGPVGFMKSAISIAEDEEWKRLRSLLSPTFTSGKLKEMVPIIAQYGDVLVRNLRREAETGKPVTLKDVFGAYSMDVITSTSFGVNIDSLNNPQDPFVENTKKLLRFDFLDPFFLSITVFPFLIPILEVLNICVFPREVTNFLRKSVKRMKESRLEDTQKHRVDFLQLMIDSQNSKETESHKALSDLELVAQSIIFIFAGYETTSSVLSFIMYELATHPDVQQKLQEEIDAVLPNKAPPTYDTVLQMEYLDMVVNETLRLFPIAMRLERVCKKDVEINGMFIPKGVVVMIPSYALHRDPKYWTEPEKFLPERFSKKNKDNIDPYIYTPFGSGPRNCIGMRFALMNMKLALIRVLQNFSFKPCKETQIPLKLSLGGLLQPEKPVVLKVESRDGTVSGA
Sequence of CYP2C9 (P11712 whole entry): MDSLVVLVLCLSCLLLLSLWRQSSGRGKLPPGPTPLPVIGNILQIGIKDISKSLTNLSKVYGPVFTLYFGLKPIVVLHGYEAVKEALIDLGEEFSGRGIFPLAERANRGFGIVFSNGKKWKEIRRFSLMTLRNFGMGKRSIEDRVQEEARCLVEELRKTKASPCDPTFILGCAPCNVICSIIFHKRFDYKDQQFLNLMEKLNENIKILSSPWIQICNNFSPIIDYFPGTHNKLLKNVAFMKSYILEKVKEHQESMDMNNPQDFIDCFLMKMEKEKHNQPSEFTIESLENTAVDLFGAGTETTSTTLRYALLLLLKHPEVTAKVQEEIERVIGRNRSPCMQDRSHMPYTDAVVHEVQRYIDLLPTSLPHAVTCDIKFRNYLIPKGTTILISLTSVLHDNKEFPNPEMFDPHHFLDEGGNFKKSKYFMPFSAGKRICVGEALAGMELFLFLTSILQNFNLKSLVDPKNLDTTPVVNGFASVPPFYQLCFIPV
Sequence of CYP2C19 (P33261 whole entry): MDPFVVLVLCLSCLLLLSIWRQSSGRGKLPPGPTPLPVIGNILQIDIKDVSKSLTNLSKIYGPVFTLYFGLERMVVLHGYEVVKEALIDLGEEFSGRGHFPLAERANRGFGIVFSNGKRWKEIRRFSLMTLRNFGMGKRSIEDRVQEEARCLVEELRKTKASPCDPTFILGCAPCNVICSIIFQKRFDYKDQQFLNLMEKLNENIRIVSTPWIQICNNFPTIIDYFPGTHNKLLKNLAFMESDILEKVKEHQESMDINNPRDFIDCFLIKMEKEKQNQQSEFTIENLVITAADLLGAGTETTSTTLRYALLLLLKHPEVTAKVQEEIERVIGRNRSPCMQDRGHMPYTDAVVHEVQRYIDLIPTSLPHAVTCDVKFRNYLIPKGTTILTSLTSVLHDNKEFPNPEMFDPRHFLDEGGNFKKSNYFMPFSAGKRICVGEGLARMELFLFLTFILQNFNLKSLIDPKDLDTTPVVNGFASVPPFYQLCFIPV

CC(C)(C)C(=O)O[C@@H]1[C@@H]2[C@H]3C[C@H](C[C@@H]1N3Cc1ccccn1)CN2C(=O)CC(F)(F)F (relative stereo) [Formula 1, (2S*,3S*,3aS*,6R*,7aR*)-1-(pyridin-2-ylmethyl)-4-(3,3,3-trifluoropropanoyl)octahydro-1H-2,6-methanopyrrolo[3,2-b]pyridin-3-yl pivalate]
HL_Lambda_z [1]: 0.39 h | withdrawal force ([2]; Taxol mice, oral 50 mg/kg, 2 h post-single administration, study day 8): active in fully reversing the withdrawal force | withdrawal force ([2]; Taxol mice, oral 50 mg/kg, 24 h post-dosing (study day 14 pre-dosing)): significantly active | tolerance effect ([2]; Taxol mice, oral 50 mg/kg, repeated daily dosing): No tolerance effect was noted | heat hyperalgesia (hotplate test) ([2]; Taxol mice, oral 50 mg/kg, 50 mg/kg): No activity was found; also recorded: not statistically different from the vehicle-treated group | Dose of maximum activity ([2]; Taxol model, PO, mice): <50 mg/kg | Duration of activity at maximum effect ([2]; Taxol model, PO, mice): 24 H | Level of activity (% of maximum effect-baseline) ([2]; Taxol model, PO, mice): 100% | Peak of activity (T) ([2]; Taxol model, PO, mice): 2-6 H | effect on body weight gain [3]: did not affect body weight gain | effect on response time in the hotplate test ([4]; CCI mice, SC): not significant | response time to cold stimuli ([4]; CCI mice, SC 30 mg/kg and 60 mg/kg): increased response time to cold stimuli | withdrawal force (von Frey) ([4]; CCI mice, SC 60 mg/kg, daily repeated treatment): significant increase in the withdrawal force | time of peak activity on cold response ([4]; CCI mice, SC, following a single dose): 2 h | time of peak activity on cold response ([4]; CCI mice, SC, post-dosing following repeated daily dosing): 2 h | tolerance effect ([4]; CCI mice, SC, repeated dosing): No tolerance effect was observed | Dose of maximum activity ([4]; SC, first SC line): 60 mg/kg | Duration of activity at maximum effect ([4]; SC, first SC line): >4 H | Level of activity (% of maximum effect-baseline) ([4]; SC, first SC line): 43% | Peak of activity (T) ([4]; SC, first SC line): 2 H | Level of activity (% of maximum effect-baseline) ([4]; SC, second SC line (readout not given)): 100% | Dose of maximum activity ([4]; SC, second SC line): 30 mg/kg | Duration of activity at maximum effect ([4]; SC, second SC line): >4 H | Peak of activity (T) ([4]; SC, second SC line): 2 H | IC50 (hERG): > 10 µM | IC50 (CYP2C8): > 10 µM | IC50 (CYP2C19): 5 µM | IC50 (CYP3A4): > 10 µM | IC50 (CYP1A2): > 10 µM | IC50 (CYP2C9): 4 µM | IC50 (CYP2D6): > 10 µM
